This assay has as its system Triple negative breast cancer cell line CAL51. Kind of assay: Cell Titer Glo proliferation assay, CAL51. It is filed as cell-based. The settings on record: Homo sapiens, CAL-51; CAL51 cell proliferation (Table 1); read-out: Act. Level. A digest of the protocol:
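CAL51 cells grown in DMEM or RPMI1640 with 10% FBS and 2 mM L-glutamine, cultured overnight, then exposed to serially diluted compound (0.2% DMSO final) for 72 h. Viability read by Cell Titer Glo luminescence.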

Consider `COc1cc(C(=O)N(C)C)ccc1Nc1nc(OC)c2c(-c3ccc4c(C)noc4c3)c[nH]c2n1` [Example 408, 3-methoxy-4-(4-methoxy-5-(3-methylbenzo[d]isoxazol-6-yl)-7H-pyrrolo[2,3-d]pyrimidin-2-ylamino)-N,N-dimethylbenzamide], for which the IC50 was in the range of 100 to 400 nM.
The result for `COc1nc(Nc2ccc(C(=O)N(C)C)cc2C)nc2[nH]cc(-c3ccnc(F)c3)c12` [Example 409, 4-(5-(2-fluoropyridin-4-yl)-4-methoxy-7H-pyrrolo[2,3-d]pyrimidin-2-ylamino)-N,N,3-trimethylbenzamide] reads 400 to 1000 nM.
The result for `COc1nc(Nc2ccc(C(=O)N(C)C)cc2C)nc2[nH]cc(-c3ccc4c(c3)nc(C)n4C)c12` [Example 410, 4-(5-(1,2-dimethyl-1H-benzo[d]imidazol-5-yl)-4-methoxy-7H-pyrrolo[2,3-d]pyrimidin-2-ylamino)-N,N,3-trimethylbenzamide] reads 1000 to 10000 nM.
The result for `COc1nc(Nc2ccc(C(=O)N(C)C)cc2C)nc2[nH]cc(-c3ccc(S(C)(=O)=O)cc3)c12` [Example 411, 4-(4-methoxy-5-(4-(methylsulfonyl)phenyl)-7H-pyrrolo[2,3-d]pyrimidin-2-ylamino)-N,N,3-trimethylbenzamide] reads 1000 to 10000 nM; that for `COc1cc(C(=O)N(C)C)ccc1Nc1nc(OC)c2c(-c3ccnc(F)c3)c[nH]c2n1` [Example 412, 4-(5-(2-fluoropyridin-4-yl)-4-methoxy-7H-pyrrolo[2,3-d]pyrimidin-2-ylamino)-3-methoxy-N,N-dimethylbenzamide], 400 to 1000 nM.
For `COc1cc(C(=O)N(C)C2COC2)ccc1Nc1nc(OC)c2c(-c3ccnc(F)c3)c[nH]c2n1` [Example 413, 4-(5-(2-fluoropyridin-4-yl)-4-methoxy-7H-pyrrolo[2,3-d]pyrimidin-2-ylamino)-3-methoxy-N-methyl-N-(oxetan-3-yl)benzamide], the IC50 was in the range of 100 to 400 nM.
The result for `COc1nc(Nc2ccc3[nH]ncc3c2C)nc2[nH]cc(-c3ccncc3)c12` [Example 414, 4-methoxy-N-(4-methyl-1H-indazol-5-yl)-5-(pyridin-4-yl)-7H-pyrrolo[2,3-d]pyrimidin-2-amine] reads 1000 to 10000 nM.
On to `COc1cc(C(=O)N(C)C)ncc1Nc1nc(OC)c2c(-c3ccnc(F)c3)c[nH]c2n1` [Example 415, 5-(5-(2-fluoropyridin-4-yl)-4-methoxy-7H-pyrrolo[2,3-d]pyrimidin-2-ylamino)-4-methoxy-N,N-dimethylpicolinamide], for which the IC50 is 400 to 1000 nM.
The result for `COc1cc(C2CCOCC2)ncc1Nc1nc(OC)c2c(-c3ccnc(F)c3)c[nH]c2n1` [Example 416, 5-(2-fluoropyridin-4-yl)-4-methoxy-N-(4-methoxy-6-(tetrahydro-2H-pyran-4-yl)pyridin-3-yl)-7H-pyrrolo[2,3-d]pyrimidin-2-amine] reads 1000 to 10000 nM; that for `COc1cc(C(=O)NC2COC2)ccc1Nc1nc(OC)c2c(-c3cn(C)nc3Cl)c[nH]c2n1` [Example 417, 4-(5-(3-chloro-1-methyl-1H-pyrazol-4-yl)-4-methoxy-7H-pyrrolo[2,3-d]pyrimidin-2-ylamino)-3-methoxy-N-(oxetan-3-yl)benzamide], 1000 to 10000 nM; that for `COc1cc(C(=O)N(C)C)ccc1Nc1nc(OC)c2c(-c3cc(C)nc(F)c3)c[nH]c2n1` [Example 418, 4-(5-(2-fluoro-6-methylpyridin-4-yl)-4-methoxy-7H-pyrrolo[2,3-d]pyrimidin-2-ylamino)-3-methoxy-N,N-dimethylbenzamide], below 100 nM.
On to `COc1nc(Nc2ccc3c(cnn3C)c2C)nc2[nH]cc(-c3ccncc3)c12` [Example 419, N-(1,4-dimethyl-1H-indazol-5-yl)-4-methoxy-5-(pyridin-4-yl)-7H-pyrrolo[2,3-d]pyrimidin-2-amine], for which the IC50 lay within 100 to 400 nM.
The result for `COc1nc(Nc2ccc(C(=O)N(C)C)cc2C)nc2[nH]cc(-c3cc(C)nc(F)c3)c12` [Example 420, 4-(5-(2-fluoro-6-methylpyridin-4-yl)-4-methoxy-7H-pyrrolo[2,3-d]pyrimidin-2-ylamino)-N,N,3-trimethylbenzamide] reads below 100 nM; that for `CNC(=O)c1ccc(-c2c[nH]c3nc(Nc4ccc(C(=O)NC)cc4Cl)nc(OC4CCOCC4)c23)cc1` [Example 421, 3-chloro-N-methyl-4-(5-(4-(methylcarbamoyl)phenyl)-4-(tetrahydro-2H-pyran-4-yloxy)-7H-pyrrolo[2,3-d]pyrimidin-2-ylamino)benzamide], below 100 nM.
The result for `COc1cc(C(=O)NC2COC2)ccc1Nc1nc(OC)c2c(-c3cc(C)nc(F)c3)c[nH]c2n1` [Example 424, 4-(5-(2-fluoro-6-methylpyridin-4-yl)-4-methoxy-7H-pyrrolo[2,3-d]pyrimidin-2-ylamino)-3-methoxy-N-(oxetan-3-yl)benzamide] reads 100 to 400 nM.
The result for `CNC(=O)c1ccc(-c2c[nH]c3nc(Nc4ccc(C(=O)NC)cc4Cl)nc(OC4CCCC4)c23)cc1` [Example 425, 3-chloro-4-(4-(cyclopentyloxy)-5-(4-(methylcarbamoyl)phenyl)-7H-pyrrolo[2,3-d]pyrimidin-2-ylamino)-N-methylbenzamide] reads below 100 nM; that for `CNC(=O)c1ccc(Nc2nc(OC(C)C)c3c(-c4ccc5nc(C)oc5c4)c[nH]c3n2)c(Cl)c1` [Example 426, 3-chloro-4-(4-isopropoxy-5-(2-methylbenzo[d]oxazol-6-yl)-7H-pyrrolo[2,3-d]pyrimidin-2-ylamino)-N-methylbenzamide], below 100 nM; that for `CNC(=O)c1ccc(Nc2nc(OC)c3c(-c4ccc5nc(C)oc5c4)c[nH]c3n2)c(Cl)c1` [Example 427, 3-chloro-4-(4-methoxy-5-(2-methylbenzo[d]oxazol-6-yl)-7H-pyrrolo[2,3-d]pyrimidin-2-ylamino)-N-methylbenzamide], below 100 nM.
Consider `CNC(=O)c1ccc(-c2c[nH]c3nc(Nc4ccc(C(=O)NC)cc4Cl)nc(OC)c23)cc1` [Example 428, 3-chloro-4-(4-methoxy-5-(4-(methylcarbamoyl)phenyl)-7H-pyrrolo[2,3-d]pyrimidin-2-ylamino)-N-methylbenzamide], for which the IC50 is below 100 nM.
The result for `CNC(=O)c1ccc(Nc2nc(OC3CCC(C)(O)CC3)c3c(-c4ccc5nc(C)oc5c4)c[nH]c3n2)c(Cl)c1` (centres unmarked) [Example 429, 3-chloro-4-(4-((1s,4s)-4-hydroxy-4-methylcyclohexyloxy)-5-(2-methylbenzo[d]oxazol-6-yl)-7H-pyrrolo[2,3-d]pyrimidin-2-ylamino)-N-methylbenzamide] reads below 100 nM.
The result for `CNC(=O)c1ccc(Nc2nc(NC3CCOCC3)c3c(-c4ccc5nc(C)oc5c4)c[nH]c3n2)c(Cl)c1` [Example 430, 3-chloro-N-methyl-4-(5-(2-methylbenzo[d]oxazol-6-yl)-4-(tetrahydro-2H-pyran-4-ylamino)-7H-pyrrolo[2,3-d]pyrimidin-2-ylamino)benzamide] reads below 100 nM; that for `Cc1nc2ccc(-c3c[nH]c4nc(Nc5ccc(C(=O)NCCO)cc5Cl)nc(OC5CCOCC5)c34)cc2o1` [Example 431, 3-chloro-N-(2-hydroxyethyl)-4-(5-(2-methylbenzo[d]oxazol-6-yl)-4-(tetrahydro-2H-pyran-4-yloxy)-7H-pyrrolo(2,3-d]pyrimidin-2-ylamino)benzamide], below 100 nM; that for `CNC(=O)c1ccc(-c2c[nH]c3nc(Nc4ccc(C(=O)NC)cc4Cl)nc(OC(C)C)c23)cc1` [Example 432, 3-chloro-4-(4-isopropoxy-5-(4-(methylcarbamoyl)phenyl)-7H-pyrrolo[2,3-d]pyrimidin-2-ylamino)-N-methylbenzamide], below 100 nM.
For the compound `CNC(=O)c1ccc(-c2c[nH]c3nc(Nc4ccc(C(=O)NC)cc4Cl)nc(NC4CCOCC4)c23)cc1` [Example 433, 3-chloro-N-methyl-4-(5-(4-(methylcarbamoyl)phenyl)-4-(tetrahydro-2H-pyran-4-ylamino)-7H-pyrrolo[2,3-d]pyrimidin-2-ylamino)benzamide], the IC50 was below 100 nM.
The result for `CNC(=O)c1ccc(-c2c[nH]c3nc(Nc4ccc(C(=O)NC)cc4Cl)nc(O[C@@H]4CCOC4)c23)cc1` [Example 434, (R)-3-chloro-N-methyl-4-(5-(4-(methylcarbamoyl)phenyl)-4-(tetrahydrofuran-3-yloxy)-7H-pyrrolo[2,3-d]pyrimidin-2-ylamino)benzamide] reads below 100 nM.
On to `CCc1cc(C(=O)NC)ccc1Nc1nc(OC2CCOCC2)c2c(-c3ccc4nc(C)oc4c3)c[nH]c2n1` [Example 435, 3-ethyl-N-methyl-4-(5-(2-methylbenzo[d]oxazol-6-yl)-4-(tetrahydro-2H-pyran-4-yloxy)-7H-pyrrolo[2,3-d]pyrimidin-2-ylamino)benzamide], for which the IC50 was below 100 nM.
Regarding `CCCc1cc(C(=O)NC)ccc1Nc1nc(OC2CCOCC2)c2c(-c3ccc4nc(C)oc4c3)c[nH]c2n1` [Example 436, N-methyl-4-(5-(2-methylbenzo[d]oxazol-6-yl)-4-(tetrahydro-2H-pyran-4-yloxy)-7H-pyrrolo[2,3-d]pyrimidin-2-ylamino)-3-propylbenzamide], the IC50 was below 100 nM.
The result for `COc1cc(C(=O)NC2COC2)ccc1Nc1nc(OC)c2c(-c3cc(C)nc(Cl)c3)c[nH]c2n1` [Example 437, 4-(5-(2-chloro-6-methylpyridin-4-yl)-4-methoxy-7H-pyrrolo[2,3-d]pyrimidin-2-ylamino)-3-methoxy-N-(oxetan-3-yl)benzamide] reads below 100 nM; that for `Cc1nc2ccc(-c3c[nH]c4nc(Nc5ccc(C(=O)NC6COC6)cc5Cl)nc(OC5CCOCC5)c34)cc2o1` [Example 438, 3-chloro-4-(5-(2-methylbenzo[d]oxazol-6-yl)-4-(tetrahydro-2H-pyran-4-yloxy)-7H-pyrrolo[2,3-d]pyrimidin-2-ylamino)-N-(oxetan-3-yl)benzamide], below 100 nM.

The record behind these values is patent publication US9795607B2, “Substituted pyrrolopyrimidine compounds, compositions thereof, and methods of treatment therewith” (Signal Pharmaceutical, LLC, priority 2013, dated 2017).
